Assay results as given in US5866545A, “Substituted ketone derivatives as inhibitors of interleukin-1β converting enzyme” (Merck & Co., Inc., priority 1996, dated 1999).
Where two headings read alike, the source gives them in different places.

Biological target: T1, interleukin-1β converting enzyme (ICE) (Homo sapiens, UniProt P29466)
T1 sequence (P29466 120-297 limits assumed): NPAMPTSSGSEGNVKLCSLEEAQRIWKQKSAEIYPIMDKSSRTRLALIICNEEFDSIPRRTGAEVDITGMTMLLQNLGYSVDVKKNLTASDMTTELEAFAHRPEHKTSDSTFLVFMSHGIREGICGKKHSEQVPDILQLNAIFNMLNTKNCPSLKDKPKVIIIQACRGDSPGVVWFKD
T1 sequence (P29466 317-404 limits assumed): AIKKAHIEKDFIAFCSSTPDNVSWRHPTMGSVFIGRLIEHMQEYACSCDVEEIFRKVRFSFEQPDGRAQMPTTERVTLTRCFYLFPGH
Assay: Fluorometric assay of inhibition of ICE hydrolysis of peptide substrate Ac-Tyr-Val-Ala-Asp-AMC
Type: biochemical
Details: for Ki: reversible inhibition; for kon: irreversible inhibition
From the text: Inhibition of Interleukin-1β Converting Enzyme (ICE).
A fluorometric assay used to evaluate the inhibition of interleukin-1βconverting enzyme (ICE) hydrolysis of a peptide substrate (Ac-Tyr-Val-Ala-Asp-AMC) by the compounds described in Examples 1-15 has been described in detail (N. A. Thornberry et al., Nature 1992, 356, 768-774). Briefly, liberation of AMC (aminomethylcoumarin) from the substrate was monitored continuously in a spectrofluorometer using an excitation wavelength of 380 nm and an emission wavelength of 460 nm. Details for determining kinetic constants for reversible and irreversible inhibition are described (N. A. Thomberry et al., Biochemistry 1994, 33, 3934-3940).
Inhibition of Interleukin-1β Converting Enzyme (ICE) by Examples 1-14

SMILES | Ki [nM] | kon (read-out: kon) [M⁻¹ s⁻¹] | kon
C=CCOC(=O)NC(CC(=O)O)C(=O)COc1ccccc1 (centres unmarked) [Example 1, N-Allyloxycarbonyl-3-amino-4-oxo-5-phenoxy-pentanoic acid] | 3500 | – | –
C=CCOC(=O)NC(CC(=O)O)C(=O)COc1cccc2ccccc12 (centres unmarked) [Example 2, N-Allyloxycarbonyl-3-amino-5-(1-naphthyloxy)-4-oxopentanoic acid] | 9500 | – | –
C=CCOC(=O)NC(CC(=O)O)C(=O)COc1cc2ccccc2cc1C(N)=O (centres unmarked) [Example 4, N-Allyloxycarbonyl-3-amino-5-(3-aminocarbonyl-2-naphthyloxy)-4-oxopentanoic acid] | 300 | – | –
C=CCOC(=O)NC(CC(=O)O)C(=O)COc1cc2ccccc2cc1C(=O)Nc1ccccc1 (centres unmarked) [Example 5, N-Allyloxycarbonyl-3-amino-5-(3-(N-phenyl)aminocarbonyl-2-naphthyloxy)-4-oxopentanoic acid] | 500 | – | –
C=CCOC(=O)NC(CC(=O)O)C(=O)COc1cc2ccccc2cc1CO (centres unmarked) [Example 7, N-Allyloxycarbonyl-3-amino-5-(3-hydroxymethyl-2-naphthyloxy)-4-oxopentanoic acid] | 1200 | – | –
CC(C)[C@H](NC(=O)OCc1ccccc1)C(=O)N[C@@H](C)C(=O)NC(CC(=O)O)C(=O)COc1cc2ccccc2cc1C(N)=O.CCN(CC)CC (some centres unmarked) [Example 12, N-(N-Carbobenzyloxy-(L)-valinyl-(L)-alaninyl)-3-amino-5-(3-amino-carbonyl-naphthyl-2-oxy)-4-oxo-pentanoic acid, triethylamine salt] | – | – | 430,000 M^-1 s^-1
CC(C)[C@H](NC(=O)OCc1ccccc1)C(=O)N1CCC[C@H]1C(=O)NC(CC(=O)O)C(=O)COc1cc2ccccc2cc1C(N)=O (some centres unmarked) [Example 13, N-(N-Carbobenzyloxy-(L)-valinyl-(L)-prolinyl)-3-amino-5-(3-amino-carbonyl-naphthyl-2-oxy)-4-oxo-petanoic acid] | – | – | 340,000 M^-1 s^-1
NC(=O)c1cc2ccccc2cc1OCC(=O)C(CC(=O)O)NC(=O)c1cc2ccccc2[nH]1 (centres unmarked) [Example 14, N-(2-indoloyl)-3-amino-5-(3-aminocarbonyl-naphthyl-2-oxy)-4-oxo-pentanoic acid] | – | – | 390 M⁻¹ s⁻¹

Further compounds by falling Ki, results first:

Ki [nM] | kon (read-out: kon) [M⁻¹ s⁻¹] | kon | SMILES
5000 | – | – | C=CCOC(=O)NC(CC(=O)O)C(=O)COc1ccc2ccccc2c1 (centres unmarked) [Example 3, N-Allyloxycarbonyl-3-amino-5-(2-naphthyloxy)-4-oxopentanoic acid]
2600 | – | – | C=CCOC(=O)NC(CC(=O)O)C(=O)COc1cc2ccccc2cc1C(=O)OC (centres unmarked) [Example 8, N-Allyloxycarbonyl-3-amino-5-(3-methoxycarbonyl-2-naphthyloxy)-4-oxopentanoic acid]
620 | 4500 | – | C=CCOC(=O)NC(CC(=O)O)C(=O)COc1cc2ccccc2cc1C#N (centres unmarked) [Example 6, N-Allyloxycarbonyl-3-amino-5-(3-cyano-2-naphthyloxy)-4-oxopentanoic acid]
520 | – | 1000 M⁻¹ s⁻¹ | C=CCOC(=O)NC(CC(=O)O)C(=O)COc1cc2ccccc2cc1C(=O)NCCO (centres unmarked) [Example 9, N-Allyloxycarbonyl-3-amino-5-(3-(2-hydroxyethyl-1-aminocarbonyl)-2-naphthyloxy)-4-oxopentanoic acid]
90 | – | 12,000 M^-1 s^-1 | C=CCOC(=O)NC(CC(=O)O)C(=O)COc1cc2ccccc2cc1-n1ccnc1 (centres unmarked) [Example 10, N-Allyloxycarbonyl-3-amino-5-(3-imidazolyl-2-naphthyloxy)-4-oxopentanoicacid]
3 | – | – | CC(=O)N[C@@H](Cc1ccc(O)cc1)C(=O)N[C@H](C(=O)N[C@@H](C)C(=O)NC(CC(=O)O)C(=O)COc1ccccc1)C(C)C (some centres unmarked) [Example 11, N-(N-Acetyl-(L)-tyrosinyl-(L)-valinyl-(L)-alaninyl)-3-amino-5-phenoxy-4-oxopentanoic acid]
